Source: ChEMBL document CHEMBL1144757, “Stylopeptide 2, a proline-rich cyclodecapeptide from the sponge Stylotella sp” (2008)
Where a SMILES comes first, the peptide text is derived from it.

Key:
[1] = system: Hs-578T; test: Growth inhibition of human HS578T cells at 10 uM; format: functional
[2] = system: BT-549; test: Growth inhibition of human BT549 cells at 10 uM; format: functional

Which results are given for CC(C)C[C@@H]1NC(=O)[C@H]([C@@H](C)O)NC(=O)[C@@H]2CCCN2C(=O)[C@H](Cc2ccccc2)NC(=O)[C@@H]2CCCN2C(=O)[C@H](Cc2ccc(O)cc2)NC(=O)[C@@H]2CCCN2C(=O)[C@H](Cc2ccccc2)NC(=O)[C@@H]2CCCN2C(=O)[C@H](CC(C)C)NC1=O [STYLOPEPTIDE 2] (cyclo(FPTLLPFPYP))?
inhibition at 10 µM [1]: 56%; inhibition at 10 µM [2]: 77%
